Legend:
[1] = Cytotoxicity against theophylline-stimulated mouse B16-4A5 cells assessed as cell viability at 30 uM after 72 hrs by MTT assay relative to control; assay type: toxicity; conditions: theophylline-stimulated B16-4A5 cells, read-out: Activity
[2] = Cytotoxicity against theophylline-stimulated mouse B16-4A5 cells assessed as cell viability at 3 uM after 72 hrs by MTT assay relative to control; assay type: toxicity; conditions: theophylline-stimulated B16-4A5 cells, read-out: Activity
[3] = Antimelanogenic activity in theophylline-stimulated mouse B16-4A5 cells assessed as inhibition of melanogenesis at 10 uM after 72 hrs relative to control; assay type: functional; conditions: B16-4A5, 72 h
[4] = Antimelanogenic activity in theophylline-stimulated mouse B16-4A5 cells assessed as inhibition of melanogenesis at 3 uM after 72 hrs relative to control; assay type: functional; conditions: B16-4A5, 72 h
[5] = Antimelanogenic activity in theophylline-stimulated mouse B16-4A5 cells assessed as inhibition of melanogenesis after 72 hrs relative to control; assay type: functional, cell-based
cells [6] = conditions: Mus musculus, B16-4A5, 72 h, read-out: INH
Description: Antimelanogenic activity in theophylline-stimulated mouse B16-4A5 cells assessed as inhibition of melanogenesis at 30 uM after 72 hrs relative to control

[7] = Cytotoxicity against theophylline-stimulated mouse B16-4A5 cells assessed as cell viability at 100 uM after 72 hrs by MTT assay relative to control; assay type: toxicity; conditions: theophylline-stimulated B16-4A5 cells, read-out: Activity
cells [8] = conditions: Mus musculus, B16-4A5, 72 h, read-out: INH; remark: listed apart in the source
[9] = Cytotoxicity against theophylline-stimulated mouse B16-4A5 cells assessed as cell viability at 10 uM after 72 hrs by MTT assay relative to control; assay type: toxicity; conditions: theophylline-stimulated B16-4A5 cells, read-out: Activity
[10] = Antimelanogenic activity in theophylline-stimulated mouse B16-4A5 cells assessed as inhibition of melanogenesis at 1 uM after 72 hrs relative to control; assay type: functional; conditions: B16-4A5, 72 h
[11] = Cytotoxicity against theophylline-stimulated mouse B16-4A5 cells assessed as cell viability at 1 uM after 72 hrs by MTT assay relative to control; assay type: toxicity; conditions: theophylline-stimulated B16-4A5 cells, read-out: Activity
[12] = Cytotoxicity against theophylline-stimulated mouse B16-4A5 cells assessed as cell viability at 0.3 uM after 72 hrs by MTT assay relative to control; assay type: toxicity; conditions: theophylline-stimulated B16-4A5 cells, read-out: Activity
[13] = Antimelanogenic activity in theophylline-stimulated mouse B16-4A5 cells assessed as inhibition of melanogenesis at 0.3 uM after 72 hrs relative to control; assay type: functional; conditions: B16-4A5, 72 h
[14] = Potency index, ratio of arbutin IC50 to compound IC50 for antimelanogenic activity in mouse B16-4A5 cells; assay type: functional
[15] = Downregulation of TRP2 expression in theophylline-stimulated mouse B16-4A5 cells assessed as ratio of TRP2 mRNA expression to beta-actin mRNA expression at 10 uM after 72 hrs by qRT-PCR analysis (reference value: […] +/- […]); assay type: functional, cell-based
[16] = Downregulation of TRP1 expression in theophylline-stimulated mouse B16-4A5 cells assessed as ratio of TRP1 mRNA expression to beta-actin mRNA expression at 10 uM after 72 hrs by qRT-PCR analysis (reference value: […] +/- […]); assay type: functional, cell-based
[17] = Downregulation of tyrosinase expression in theophylline-stimulated mouse B16-4A5 cells assessed as ratio of tyrosinase mRNA expression to beta-actin mRNA expression at 3 uM after 72 hrs by qRT-PCR analysis (reference value: […] +/- […]); assay type: functional, cell-based
[18] = Downregulation of tyrosinase expression in theophylline-stimulated mouse B16-4A5 cells assessed as ratio of tyrosinase mRNA expression to beta-actin mRNA expression at 10 uM after 72 hrs by qRT-PCR analysis (reference value: […] +/- […]); assay type: functional, cell-based
[19] = Downregulation of TRP1 expression in theophylline-stimulated mouse B16-4A5 cells assessed as ratio of TRP1 mRNA expression to beta-actin mRNA expression at 3 uM after 72 hrs by qRT-PCR analysis (reference value: […] +/- […]); assay type: functional, cell-based
[20] = Downregulation of TRP2 expression in theophylline-stimulated mouse B16-4A5 cells assessed as ratio of TRP2 mRNA expression to beta-actin mRNA expression at 3 uM after 72 hrs by qRT-PCR analysis (reference value: […] +/- […]); assay type: functional, cell-based

| Compound | viability at 72 h, 30 µM [1] [%] | viability at 72 h, 3 µM [2] [%] | inhibition at 10 µM [3] [%] | inhibition at 3 µM [4] [%] | IC50 [5] [µM] | inhibition at 30 µM (cells [6]) [%] | viability at 72 h, 100 µM [7] [%] | inhibition at 100 µM (cells [8]) [%] | viability at 72 h, 10 µM [9] [%] | inhibition at 1 µM [10] [%] | viability at 72 h, 1 µM [11] [%] | viability at 72 h, 0.3 µM [12] [%] | inhibition at 0.3 µM [13] [%] | Ratio IC50 [14] | Ratio [15] | Ratio [16] | Ratio [17] | Ratio [18] | Ratio [19] | Ratio [20] |
| --- | --- | --- | --- | --- | --- | --- | --- | --- | --- | --- | --- | --- | --- | --- | --- | --- | --- | --- | --- | --- |
| O=C/C=C/c1ccc(O)cc1 [p-HYDROXYCINNAMALDEHYDE] | 94.3 | 103 | 12.8 | 8.9 | 18.3 | 67.4 | 66.8 | 104 | 108 | – | – | – | – | – | – | – | – | – | – | – |
| C=CC(OC(C)=O)c1ccc(OC(C)=O)cc1 (racemic) | – | 108 | 103 | 35.1 | 4.4 | – | – | – | 31.8 | 4.4 | 104 | 102 | 5 | – | – | – | – | – | – | – |
| C=C[C@H](OC/C=C/c1ccc(OC(C)=O)cc1)c1ccc(OC(C)=O)cc1 | – | 68.5 | 117 | 58.5 | 2.5 | – | – | – | 26.5 | 10 | 82.9 | 98.1 | -5.9 | >25 - 70 | 1.43 | 0.99 | 0.87 | 0.53 | 0.76 | 0.72 |
| C=C[C@H](OC/C=C/c1ccc(O)cc1)c1ccc(O)cc1 | – | 120 | 70.5 | 46.4 | 3.3 | – | – | – | 114 | 46.4 | 119 | 111 | 40.4 | – | – | – | – | – | – | – |
| COc1cc(/C=C/C=O)ccc1O [CONIFERYL ALDEHYDE] | 74.2 | 101 | 23.7 | 17 | 15.3 | 100 | 44.7 | 87.7 | 85.8 | – | – | – | – | – | – | – | – | – | – | – |
| COc1cc(/C=C/CO)ccc1O [CONIFERYL ALCOHOL] | 88 | 98.9 | 44.5 | 35.9 | 16.1 | 64.2 | 33.1 | -3 | 98.2 | – | – | – | – | – | – | – | – | – | – | – |
| C=CC(OC/C=C/c1ccc(OC(C)=O)cc1)c1ccc(OC(C)=O)cc1 (racemic) | – | 85.2 | -5.5 | 57.2 | 2.2 | – | – | – | 12.9 | 32.4 | 99.3 | 105 | 10.3 | – | 0.81 | 0.81 | 0.77 | 0.6 | 0.79 | 0.86 |
| C=CC(OC/C=C/c1ccc(O)cc1)c1ccc(O)cc1 (racemic) | – | 104 | 77.4 | 50.9 | 3 | – | – | – | 105 | 43.6 | 95.1 | 102 | 26.7 | – | – | – | – | – | – | – |
| C=C[C@@H](OC/C=C/c1ccc(OC(C)=O)cc1)c1ccc(OC(C)=O)cc1 | – | 81.5 | 137 | 71.4 | 1.9 | – | – | – | 29.7 | 31.8 | 102 | 107 | 10.8 | – | 0.88 | 0.94 | 0.84 | 0.56 | 0.92 | 1.67 |
| C=C[C@@H](OC/C=C/c1ccc(O)cc1)c1ccc(O)cc1 | – | 103 | 80.2 | 47.7 | 3.2 | – | – | – | 93.9 | 47.1 | 107 | 106 | 32.9 | – | – | – | – | – | – | – |
| COc1cc(C=O)ccc1O [VANILLIN] | 104 | 108 | 8.4 | -8.4 | 49.2 | 49.7 | 106 | 96.1 | 104 | – | – | – | – | – | – | – | – | – | – | – |

— ChEMBL document CHEMBL3864140, “Melanogenesis inhibitory activity of a 7-O-9'-linked neolignan from Alpinia galanga fruit” (Bioorg Med Chem, 2016)
